Two compounds from ChEMBL document CHEMBL3774336, “Identification of spirooxindole and dibenzoxazepine motifs as potent mineralocorticoid receptor antagonists” (Bioorg Med Chem, 2016) can be followed below.

Bounds are passed on as bounds.

For series [1], the target named is Histamine H1 receptor (Homo sapiens) (UniProt P35367). Nature of the series: Inhibition of histamine H1 receptor (unknown origin) at 10 uM.
Series [2] deals with T1, Alpha-2A adrenergic receptor (Homo sapiens) (UniProt P08913).
T1 sequence (whole entry): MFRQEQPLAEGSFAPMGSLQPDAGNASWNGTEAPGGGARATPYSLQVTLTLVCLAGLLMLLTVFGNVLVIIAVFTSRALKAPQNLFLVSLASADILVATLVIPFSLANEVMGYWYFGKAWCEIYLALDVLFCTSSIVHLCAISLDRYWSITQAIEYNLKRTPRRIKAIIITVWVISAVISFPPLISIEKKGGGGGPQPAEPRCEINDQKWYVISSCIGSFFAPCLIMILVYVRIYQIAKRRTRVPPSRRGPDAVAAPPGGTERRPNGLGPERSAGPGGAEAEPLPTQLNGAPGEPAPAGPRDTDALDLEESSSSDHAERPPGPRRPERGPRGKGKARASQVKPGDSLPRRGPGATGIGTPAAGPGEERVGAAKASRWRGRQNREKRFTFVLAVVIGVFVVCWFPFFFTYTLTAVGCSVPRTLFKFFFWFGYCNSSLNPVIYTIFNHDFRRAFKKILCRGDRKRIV
Nature of the series: Inhibition of adrenergic alpha2A receptor (unknown origin) at 10 uM.

Series [3] has as its target T2, Glucocorticoid receptor (Homo sapiens) (UniProt P04150).
T2 sequence (whole entry): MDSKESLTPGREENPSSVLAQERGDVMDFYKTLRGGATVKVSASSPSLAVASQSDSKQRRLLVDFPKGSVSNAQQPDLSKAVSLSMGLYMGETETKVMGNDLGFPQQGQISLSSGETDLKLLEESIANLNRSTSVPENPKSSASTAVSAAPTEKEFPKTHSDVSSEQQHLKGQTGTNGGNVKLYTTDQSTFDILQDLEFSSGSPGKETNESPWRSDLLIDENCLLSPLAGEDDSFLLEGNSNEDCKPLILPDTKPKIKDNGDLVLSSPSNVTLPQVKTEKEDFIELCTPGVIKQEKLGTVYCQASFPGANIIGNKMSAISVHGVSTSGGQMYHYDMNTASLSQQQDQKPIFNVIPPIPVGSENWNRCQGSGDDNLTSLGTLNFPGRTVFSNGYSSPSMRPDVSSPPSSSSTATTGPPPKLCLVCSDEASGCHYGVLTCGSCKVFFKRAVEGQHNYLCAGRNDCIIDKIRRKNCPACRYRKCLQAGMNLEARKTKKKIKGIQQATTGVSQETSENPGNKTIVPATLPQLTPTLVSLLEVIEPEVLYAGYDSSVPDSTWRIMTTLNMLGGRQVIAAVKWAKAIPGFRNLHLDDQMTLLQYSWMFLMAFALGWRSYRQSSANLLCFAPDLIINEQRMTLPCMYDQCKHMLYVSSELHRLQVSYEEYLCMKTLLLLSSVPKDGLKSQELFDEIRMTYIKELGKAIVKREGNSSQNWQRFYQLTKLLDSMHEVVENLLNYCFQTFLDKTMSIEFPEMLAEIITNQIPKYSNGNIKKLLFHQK
Put plainly: Inhibition of GST-tagged human glucocorticoid receptor LBD domain expressed in insect cells at 10 uM by Gal4-based fluorescence polarization assay. (Polarisation of emitted light reports the rotation of a fluorescent probe.)

In series [4] the target is 5-hydroxytryptamine receptor 2B (Homo sapiens) (UniProt P41595). Put plainly: Inhibition of serotonin 5H2B receptor (unknown origin) at 10 uM.
Sequence of 5-hydroxytryptamine receptor 2B (Homo sapiens) (P41595 whole entry): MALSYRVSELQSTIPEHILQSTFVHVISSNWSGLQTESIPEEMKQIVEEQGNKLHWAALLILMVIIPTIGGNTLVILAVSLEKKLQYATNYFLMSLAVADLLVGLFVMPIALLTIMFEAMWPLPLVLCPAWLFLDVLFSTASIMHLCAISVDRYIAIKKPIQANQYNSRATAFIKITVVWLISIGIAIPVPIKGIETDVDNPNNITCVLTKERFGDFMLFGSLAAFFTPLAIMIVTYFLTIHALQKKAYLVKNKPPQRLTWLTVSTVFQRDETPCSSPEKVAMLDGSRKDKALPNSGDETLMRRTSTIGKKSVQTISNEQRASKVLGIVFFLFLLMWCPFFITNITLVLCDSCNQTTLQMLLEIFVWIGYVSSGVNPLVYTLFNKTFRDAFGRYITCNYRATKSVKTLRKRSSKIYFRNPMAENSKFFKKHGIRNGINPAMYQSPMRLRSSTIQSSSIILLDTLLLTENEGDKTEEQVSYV
Series [5] deals with T3, Mineralocorticoid receptor (Homo sapiens, UniProt P08235, C808S).
T3 sequence (P08235 whole entry C808S): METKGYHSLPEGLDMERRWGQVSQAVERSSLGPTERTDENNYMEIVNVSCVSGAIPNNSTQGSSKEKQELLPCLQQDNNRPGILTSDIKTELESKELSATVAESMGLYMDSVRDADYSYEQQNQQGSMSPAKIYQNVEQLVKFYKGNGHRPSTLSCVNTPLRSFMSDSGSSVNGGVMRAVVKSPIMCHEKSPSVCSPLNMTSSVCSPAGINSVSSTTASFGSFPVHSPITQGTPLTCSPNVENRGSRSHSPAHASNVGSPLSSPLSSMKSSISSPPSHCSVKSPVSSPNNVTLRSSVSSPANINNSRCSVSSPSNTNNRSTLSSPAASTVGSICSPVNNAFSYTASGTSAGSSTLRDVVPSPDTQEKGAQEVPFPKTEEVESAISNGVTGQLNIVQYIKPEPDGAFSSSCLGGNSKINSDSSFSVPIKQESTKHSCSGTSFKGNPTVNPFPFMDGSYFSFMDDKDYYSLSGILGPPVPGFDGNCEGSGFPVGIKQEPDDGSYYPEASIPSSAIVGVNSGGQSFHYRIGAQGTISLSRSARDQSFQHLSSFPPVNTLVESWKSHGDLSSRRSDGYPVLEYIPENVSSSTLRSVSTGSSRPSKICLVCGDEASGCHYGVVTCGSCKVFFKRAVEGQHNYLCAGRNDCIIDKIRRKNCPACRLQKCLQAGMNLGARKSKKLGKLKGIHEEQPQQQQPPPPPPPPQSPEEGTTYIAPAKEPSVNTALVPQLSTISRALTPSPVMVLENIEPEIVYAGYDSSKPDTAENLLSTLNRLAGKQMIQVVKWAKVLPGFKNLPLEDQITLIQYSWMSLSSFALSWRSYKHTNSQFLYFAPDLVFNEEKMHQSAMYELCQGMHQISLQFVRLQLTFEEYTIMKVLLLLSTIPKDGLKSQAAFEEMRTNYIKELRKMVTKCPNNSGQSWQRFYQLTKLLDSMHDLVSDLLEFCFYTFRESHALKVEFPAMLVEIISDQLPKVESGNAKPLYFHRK
Series [6] concerns the target hERG (KCNH2) (Homo sapiens, UniProt Q12809). Put plainly: Inhibition of human ERG (unknown origin) at 10 uM.
The target in series [7] is T3, Mineralocorticoid receptor. The source holds these as a separate data set.
In series [8] the target is T4, Progesterone receptor (Homo sapiens) (UniProt P06401).
T4 sequence (whole entry): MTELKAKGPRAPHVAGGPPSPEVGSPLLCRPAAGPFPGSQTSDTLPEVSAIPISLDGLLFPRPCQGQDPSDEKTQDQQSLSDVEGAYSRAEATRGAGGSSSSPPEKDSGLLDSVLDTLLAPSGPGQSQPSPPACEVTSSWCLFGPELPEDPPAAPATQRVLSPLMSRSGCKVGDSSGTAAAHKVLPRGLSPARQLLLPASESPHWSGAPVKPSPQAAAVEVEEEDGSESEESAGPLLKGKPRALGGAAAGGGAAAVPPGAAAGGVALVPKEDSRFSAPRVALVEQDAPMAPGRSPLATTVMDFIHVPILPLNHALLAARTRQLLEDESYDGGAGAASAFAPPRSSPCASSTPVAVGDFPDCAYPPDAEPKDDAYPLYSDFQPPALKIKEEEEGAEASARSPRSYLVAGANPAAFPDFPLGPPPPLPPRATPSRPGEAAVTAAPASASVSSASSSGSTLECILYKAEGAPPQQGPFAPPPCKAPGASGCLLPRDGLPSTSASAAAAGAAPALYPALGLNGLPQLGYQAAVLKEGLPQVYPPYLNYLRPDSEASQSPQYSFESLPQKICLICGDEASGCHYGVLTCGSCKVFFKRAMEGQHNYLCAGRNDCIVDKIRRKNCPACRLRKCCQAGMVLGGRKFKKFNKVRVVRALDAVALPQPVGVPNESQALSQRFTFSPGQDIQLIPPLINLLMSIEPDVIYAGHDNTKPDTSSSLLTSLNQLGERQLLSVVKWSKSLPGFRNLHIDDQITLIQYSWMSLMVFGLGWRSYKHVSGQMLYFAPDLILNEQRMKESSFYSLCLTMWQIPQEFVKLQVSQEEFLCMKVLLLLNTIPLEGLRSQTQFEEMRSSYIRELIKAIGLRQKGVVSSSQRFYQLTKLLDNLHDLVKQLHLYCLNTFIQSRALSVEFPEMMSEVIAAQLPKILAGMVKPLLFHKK
Put plainly: Inhibition of GST-tagged human progesterone receptor LBD domain expressed in insect cells at 10 uM by Gal4-based fluorescence polarization assay.

Sequence of hERG (KCNH2) (Q12809 whole entry): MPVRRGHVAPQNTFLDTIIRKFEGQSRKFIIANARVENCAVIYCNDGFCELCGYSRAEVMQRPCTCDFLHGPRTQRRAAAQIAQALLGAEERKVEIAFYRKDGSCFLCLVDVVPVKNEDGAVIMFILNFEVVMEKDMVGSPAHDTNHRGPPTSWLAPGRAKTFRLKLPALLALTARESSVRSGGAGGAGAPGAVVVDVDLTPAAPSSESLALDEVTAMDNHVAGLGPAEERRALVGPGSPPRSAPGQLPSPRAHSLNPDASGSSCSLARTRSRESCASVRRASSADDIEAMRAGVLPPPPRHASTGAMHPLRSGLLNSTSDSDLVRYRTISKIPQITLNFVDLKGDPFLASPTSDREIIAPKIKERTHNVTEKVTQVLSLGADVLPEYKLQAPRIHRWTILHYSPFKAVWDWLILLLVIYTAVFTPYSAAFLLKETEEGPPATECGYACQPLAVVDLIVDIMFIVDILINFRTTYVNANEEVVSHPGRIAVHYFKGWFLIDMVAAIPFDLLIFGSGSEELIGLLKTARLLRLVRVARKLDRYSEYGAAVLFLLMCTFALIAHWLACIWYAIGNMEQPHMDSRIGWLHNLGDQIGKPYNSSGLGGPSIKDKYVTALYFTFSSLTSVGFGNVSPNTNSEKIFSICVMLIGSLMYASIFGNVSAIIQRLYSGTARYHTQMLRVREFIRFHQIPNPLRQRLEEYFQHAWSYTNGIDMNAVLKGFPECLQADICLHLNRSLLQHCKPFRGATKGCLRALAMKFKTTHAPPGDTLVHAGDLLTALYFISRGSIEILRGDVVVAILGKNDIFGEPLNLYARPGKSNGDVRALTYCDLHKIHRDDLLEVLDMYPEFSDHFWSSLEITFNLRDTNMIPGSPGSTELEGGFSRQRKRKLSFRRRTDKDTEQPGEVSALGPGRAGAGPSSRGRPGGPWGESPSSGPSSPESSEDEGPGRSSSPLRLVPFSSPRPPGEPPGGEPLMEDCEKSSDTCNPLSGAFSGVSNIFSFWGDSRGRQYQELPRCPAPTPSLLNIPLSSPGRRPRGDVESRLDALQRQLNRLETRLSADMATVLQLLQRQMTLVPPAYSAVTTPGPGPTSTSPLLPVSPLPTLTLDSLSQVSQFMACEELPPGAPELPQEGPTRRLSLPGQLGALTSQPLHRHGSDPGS
Sequence of Histamine H1 receptor (Homo sapiens) (P35367 whole entry): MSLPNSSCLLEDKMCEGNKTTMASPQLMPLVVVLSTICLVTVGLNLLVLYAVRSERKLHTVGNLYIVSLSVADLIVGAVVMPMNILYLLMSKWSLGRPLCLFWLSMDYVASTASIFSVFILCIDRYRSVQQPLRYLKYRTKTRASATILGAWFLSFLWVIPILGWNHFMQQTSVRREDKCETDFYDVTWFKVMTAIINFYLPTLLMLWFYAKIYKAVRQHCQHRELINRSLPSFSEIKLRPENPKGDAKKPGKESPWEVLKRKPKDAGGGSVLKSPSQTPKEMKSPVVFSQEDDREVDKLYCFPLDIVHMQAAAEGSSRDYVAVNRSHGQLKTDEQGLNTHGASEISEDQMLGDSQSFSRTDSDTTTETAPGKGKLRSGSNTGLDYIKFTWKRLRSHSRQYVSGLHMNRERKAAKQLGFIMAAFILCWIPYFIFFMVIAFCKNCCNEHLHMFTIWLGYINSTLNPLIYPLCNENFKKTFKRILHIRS

For `O=C1COc2ccc(/C=C3\c4ccccc4COc4cc(F)ccc43)cc2N1`, the inhibition in series [1] came out at 26%; in series [2], 59%; in series [3] it was 92%; in series [4], 67%; in series [8] it was 98%. 2 nM corresponded to half-maximal inhibition in series [5] (IC50). Moreover, in series [6], the inhibition at 10 µM turned out to be 26%. Moreover, the Ki in series [7] turned out to be 2 nM.

Take `CN1CCC2(CC1)C(=O)Nc1cc(/C=C3\c4ccccc4COc4cc(F)ccc43)ccc12`: the inhibition in series [1] is 97%; in series [2], 100%; in series [3] it was < 40%; in series [4], 87%; in series [8], < 40%. Further, the IC50 in series [5] worked out at 19 nM. Also, at 10 µM the inhibition in series [6] was 78%. In addition, affinity in series [7] was put at a Ki of 6 nM.

Broadly, the inhibition is the share of the control response that was lost under treatment. What is called IC50 is the midpoint of a concentration-inhibition curve. Broadly, the Ki is a dissociation constant, usually derived from enzyme kinetics or from competition with a known ligand. Low readings indicate tighter binding, high ones weaker binding.
